Columns and labels:
Type in all cases: cell-based, human
HepG2 cells = assay: Intracellular triglyceride level in HepG2 cells after 48 hours incubation; conditions: for increase in TG synthesis compared to vehicle: 10 μM ARA, 1 μM T1317
Procedure: FIG. 1 depicts the measurement of intracellular triglyceride level in HepG2 cells after 48 hours incubation with one or more selected from arachidonic acid, T0901317, and MN-001. Y-axis: Δ intracellular triglycerides (μg/mg/protein). HepG2 cells (derived from human hepatocellular carcinoma samples) were incubated with one or more selected from 10 μM arachidonic acid (ARA), 1 μM LXR agonist T0901317 (“T1317”), and 10 μM MN-001 for 48 hours. T1317 stimulates LXR-SREBP-1c ChREPB signal, increases triglyceride (TG) synthesis in liver and exacerbates fatty liver. The intracellular triglyceride level was measured after the treatment (FIG. 1).

CD36 = CD36 mRNA expression in HepG2 cells by qPCR; conditions: 48 hours
Source text: FIG. 2 depicts the measurement of CD36 mRNA expression levels from HepG2 cells after treatment with one or more selected from arachidonic acid, T0901317, and MN-001. Y-axis: relative mRNA expression (arbitrary units) compared to a control.
(§1) The effect of MN-001 on the mRNA expression of molecules related to TG metabolism: (1) fatty acid translocase/CD36, which is involved in the uptake of ARA into hepatocytes in the liver, and (2) ABCG1, which plays a role in controlling tissue lipid levels by mediating transfer of cellular cholesterol to HDL, were also investigated by measuring extracted RNA from HepG2 cells and using real-time PCR. To this end, RNA was extracted from HepG2 cells (after treatment with one or more selected from 10 μM arachidonic acid (ARA), 1 μM T1317, and 10 μM MN-001 for 48 hours) and converted to cDNA.
After conversion to cDNA, the CD36 mRNA expression levels were measured by qPCR (FIG. 2). […] Saturated fatty acids (e.g., palmitic acid, stearic acid) and fructose induce adipogenic pathways and promote fat accumulation by increasing CD36 expression and modulating ChREBP, which regulates lipogenesis.

ABCG1 = ABCG1 mRNA expression in HepG2 cells by qPCR; conditions: 48 hours, 10 μM MN-001, 10 μM ARA
Source text: FIG. 3 depicts the measurement of ABCG1 mRNA expression levels from HepG2 cells after treatment with one or more selected from arachidonic acid, T0901317, and MN-001. Y-axis: relative mRNA expression (arbitrary units) compared to a control.
as §1
In addition, the ABCG1 mRNA expression levels were also measured by qPCR (FIG. 3). ABCG1 is known to be highly expressed in lipid-loaded macrophages and mediates cholesterol efflux to HDL. ABCG1 deficiency leads to profound intracellular cholesterol accumulation in macrophages and hepatocytes.

[1] = 10 μM MN-001 added to 10 μM ARA

| SMILES | suppression of the increase in TG synthesis by T1317 (HepG2 cells; 10 μM MN-001 added to 1 μM T1317) | suppression of the increase in TG synthesis by a combination of T1317 and ARA (HepG2 cells; 10 μM MN-001 added to 1 μM T1317 and 10 μM ARA) | suppression of the increase in TG synthesis by ARA (HepG2 cells; [1]) | lowering of CD36 expression (CD36; 10 μM MN-001, in the absence of ARA) | lowering of CD36 expression (CD36; 10 μM MN-001, in the presence of ARA (10 μM)) | suppression of CD36 expression compared to ARA alone (CD36; [1]) | downregulation of CD36 expression compared to control (CD36; 10 μM MN-001 alone) | upregulation of ABCG1 expression compared to control (ABCG1) | increase in TG synthesis compared to vehicle (HepG2 cells) | increase of CD36 expression compared to control (CD36; 10 μM ARA) |
| --- | --- | --- | --- | --- | --- | --- | --- | --- | --- | --- |
| CCCc1c(SCCCOc2ccc(C(C)=O)c(OCCCC(=O)O)c2CCC)ccc(C(C)=O)c1O [MN-001] | 1.7 fold | 3.7 fold | 3.7 fold | 39% | 43% | 0.6 fold | 0.6 fold | 17 fold |  |  |
| CCCCC/C=C\C/C=C\C/C=C\C/C=C\CCCC(=O)O [ARA, arachidonic acid, reference compound] |  |  |  |  |  |  |  |  | 15.3 fold | 1.8 fold |
| O=S(=O)(c1ccccc1)N(CC(F)(F)F)c1ccc(C(O)(C(F)(F)F)C(F)(F)F)cc1 [T1317, reference compound] |  |  |  |  |  |  |  |  | 3.8 fold |  |

Reference: patent US12239620B2, “Methods to decrease triglyceride synthesis in the liver” (MediciNova, Inc., priority 2021, dated 2025)
